Consider 21 compounds from patent publication US7592345B2, “Piperazine and [1,4]diazepan derivatives as NK antagonists” (Hoffmann-La Roche Inc., priority 2007, dated 2009).

This experiment addresses T1, recombinant human NK3 receptor (Homo sapiens, UniProt P29371).
T1 construct: expressed in transfected cells; host or cells: HEK293 cells (transient expression), membranes
T1 sequence (P29371 1-465): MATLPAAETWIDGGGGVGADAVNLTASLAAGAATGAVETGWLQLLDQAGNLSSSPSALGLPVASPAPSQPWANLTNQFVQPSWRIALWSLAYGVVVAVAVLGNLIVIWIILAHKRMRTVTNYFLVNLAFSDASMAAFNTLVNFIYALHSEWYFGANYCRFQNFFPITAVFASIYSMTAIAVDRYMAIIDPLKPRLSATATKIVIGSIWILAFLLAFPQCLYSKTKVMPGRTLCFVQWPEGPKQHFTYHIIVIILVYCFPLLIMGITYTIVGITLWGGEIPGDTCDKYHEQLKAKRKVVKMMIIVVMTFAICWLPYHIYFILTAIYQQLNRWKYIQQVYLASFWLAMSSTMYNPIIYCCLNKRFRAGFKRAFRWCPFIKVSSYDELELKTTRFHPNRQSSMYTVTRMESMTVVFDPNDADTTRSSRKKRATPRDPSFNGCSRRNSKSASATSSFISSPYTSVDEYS
Briefly: [3H]SR142801 competition binding assay. As to conditions: [3H]SR142801, membranes from HEK293 cells transiently expressing recombinant human NK3 receptor; read-out: hNK3 Ki. An outline of the steps: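 Membranes from HEK293 cells transiently expressing human NK3 were incubated 75 min at RT with [3H]SR142801 at its KD and inhibitor (0.0003-10 μM) in Tris-HCl pH 7.4/MnCl2/phosphoramidon/BSA. Nonspecific binding used 10 μM SB222200. Ki from Hill-fitted IC50 via Cheng-Prusoff, duplicate determinations.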
The term Ki denotes the dissociation constant of the complex between target and ligand, obtained from inhibition or displacement. Consider `CC(CCN1CCN(S(C)(=O)=O)CC1)(C(=O)NCc1ccc(Cl)c(Cl)c1)c1ccc(Cl)c(Cl)c1` (stereo not drawn) [Example 21, N-(3,4-Dichloro-benzyl)-2-(3,4-dichloro-phenyl)-4-(4-methanesulfonyl-piperazin-1-yl)-2-methyl-butyramide], for which the Ki is 65.5 nM.

On to `CN(C)c1ccc(CNC(=O)C(C)(CCN2CCCN(S(C)(=O)=O)CC2)c2ccc(Cl)c(Cl)c2)cc1` (stereo not drawn) [Example 110, 2-(3,4-Dichloro-phenyl)-N-(4-dimethylamino-benzyl)-4-(4-methanesulfonyl-[1,4]diazepan-1-yl)-2-methyl-butyramide], for which the Ki came to 291 nM. In the case of `CC(NC(=O)C(C)(CCN1CCCN(S(C)(=O)=O)CC1)c1ccc(Cl)c(Cl)c1)c1ccc(Cl)c(Cl)c1` (stereo not drawn) [Example 122, 2-(3,4-Dichloro-phenyl)-N-[1-(3,4-dichloro-phenyl)-ethyl]-4-(4-methanesulfonyl-[1,4]diazepan-1-yl)-2-methyl-butyramide], the Ki is 43.4 nM. For the compound `C[C@H]1CN(CCC(C)(C(=O)N(C)Cc2ccc(Cl)c(C(F)(F)F)c2)c2ccc(Cl)c(Cl)c2)CCN1S(C)(=O)=O` (stereo partly drawn) [Example 69, N-(4-Chloro-3-trifluoromethyl-benzyl)-2-(3,4-dichloro-phenyl)-4-((S)-4-methanesulfonyl-3-methyl-piperazin-1-yl)-2,N-dimethyl-butyramide], the Ki was 11.4 nM. Consider `CC(CCN1CCN(S(C)(=O)=O)CC1)(C(=O)NCc1cccc(C(F)(F)F)c1)c1ccc(Cl)c(Cl)c1` (stereo not drawn) [Example 8, 2-(3,4-Dichloro-phenyl)-4-(4-methanesulfonyl-piperazin-1-yl)-2-methyl-N-(3-trifluoromethyl-benzyl)-butyramide], for which the Ki is 288 nM. As to `C[C@H]1CN(CCC(C)(C(=O)N(C)Cc2ccc(C(F)(F)F)cc2)c2ccc(Cl)c(Cl)c2)CCN1S(C)(=O)=O` (stereo partly drawn) [Example 85, 2-(3,4-Dichloro-phenyl)-4-((S)-4-methanesulfonyl-3-methyl-piperazin-1-yl)-2,N-dimethyl-N-(4-trifluoromethyl-benzyl)-butyramide], the inhibitory constant (Ki) was found to be 27.7 nM. The result for `C[C@H]1CN(CCC(C)(C(=O)N(C)Cc2ccccc2Cl)c2ccc(Cl)c(Cl)c2)CCN1S(C)(=O)=O` (stereo partly drawn) [Example 79, N-(2-Chloro-benzyl)-2-(3,4-dichloro-phenyl)-4-((S)-4-methanesulfonyl-3-methyl-piperazin-1-yl)-2,N-dimethyl-butyramide] reads 168 nM; that for `C[C@@H]1CN(CCC(C)(C(=O)N(C)Cc2ccc(C(F)(F)F)c(F)c2)c2ccc(Cl)c(Cl)c2)CCN1S(C)(=O)=O` (stereo partly drawn) [Example 40, 2-(3,4-Dichloro-phenyl)-N-(3-fluoro-4-trifluoromethyl-benzyl)-4-((R)-4-methanesulfonyl-3-methyl-piperazin-1-yl)-2,N-dimethyl-butyramide], 16.7 nM.

Take `C[C@H]1CN(CCC(C)(C(=O)N(C)Cc2ccc(C(F)(F)F)nc2)c2ccc(Cl)c(Cl)c2)CCN1S(C)(=O)=O` (stereo partly drawn) [Example 90, 2-(3,4-Dichloro-phenyl)-4-((S)-4-methanesulfonyl-3-methyl-piperazin-1-yl)-2,N-dimethyl-N-(6-trifluoromethyl-pyridin-3-ylmethyl)-butyramide]: the inhibition constant Ki turned out to be 525 nM. Regarding `CC(NC(=O)C(C)(CCN1CCN(S(C)(=O)=O)CC1)c1ccc(Cl)c(Cl)c1)c1ccc(F)cc1` (stereo not drawn) [Example 134, 2-(3,4-Dichloro-phenyl)-N-[1-(4-fluoro-phenyl)-ethyl]-4-(4-methanesulfonyl-piperazin-1-yl)-2-methyl-butyramide], the inhibitory constant (Ki) was found to be 229 nM. Consider `CC(CCN1CCCN(S(C)(=O)=O)CC1)(C(=O)NCc1ccc(Cl)c(F)c1)c1ccc(Cl)c(Cl)c1` (stereo not drawn) [Example 98, N-(4-Chloro-3-fluoro-benzyl)-2-(3,4-dichloro-phenyl)-4-(4-methanesulfonyl-[1,4]diazepan-1-yl)-2-methyl-butyramide], for which the inhibition constant (Ki) was determined as 66 nM. With `COc1cccc(CN(C)C(=O)C(C)(CCN2CCN(S(C)(=O)=O)[C@H](C)C2)c2ccc(Cl)c(Cl)c2)c1` (stereo partly drawn) [Example 48, 2-(3,4-Dichloro-phenyl)-4-((R)-4-methanesulfonyl-3-methyl-piperazin-1-yl)-N-(3-methoxy-benzyl)-2,N-dimethyl-butyramide], the Ki is 263 nM. With `CC(CCN1CCN(S(C)(=O)=O)CC1)(C(=O)NCc1cccc(OC(F)F)c1)c1ccc(Cl)c(Cl)c1` (stereo not drawn) [Example 11, 2-(3,4-Dichloro-phenyl)-N-(3-difluoromethoxy-benzyl)-4-(4-methanesulfonyl-piperazin-1-yl)-2-methyl-butyramide], the Ki is 417 nM. As to `C[C@@H]1CN(CCC(C)(C(=O)NCc2ccc(Cl)c(Cl)c2)c2ccc(Cl)c(Cl)c2)CCN1S(C)(=O)=O` (stereo partly drawn) [Example 42, N-(3,4-Dichloro-benzyl)-2-(3,4-dichloro-phenyl)-4-((R)-4-methanesulfonyl-3-methyl-piperazin-1-yl)-2-methyl-butyramide], the Ki was found to be 5.7 nM. For the compound `CC(CCN1CCN(S(C)(=O)=O)CC1)(C(=O)NCc1ccc(C(F)(F)F)cc1)c1ccc(Cl)c(Cl)c1` (stereo not drawn) [Example 27, 2-(3,4-Dichloro-phenyl)-4-(4-methanesulfonyl-piperazin-1-yl)-2-methyl-N-(4-trifluoromethyl-benzyl)-butyramide], the Ki worked out at 82 nM.

For `C[C@@H]1CN(CCC(C)(C(=O)N(C)Cc2ccc(Cl)cc2)c2ccc(Cl)c(Cl)c2)CCN1S(C)(=O)=O` (stereo partly drawn) [Example 56, N-(4-Chloro-benzyl)-2-(3,4-dichloro-phenyl)-4-((R)-4-methanesulfonyl-3-methyl-piperazin-1-yl)-2,N-dimethyl-butyramide], the Ki is 26.5 nM. `CC(CCN1CCN(S(C)(=O)=O)CC1)(C(=O)NCc1ccc(OC(F)(F)F)cc1)c1ccc(Cl)c(Cl)c1` (stereo not drawn) [Example 17, 2-(3,4-Dichloro-phenyl)-4-(4-methanesulfonyl-piperazin-1-yl)-2-methyl-N-(4-trifluoromethoxy-benzyl)-butyramide]: the Ki was 146 nM. The result for `C[C@H]1CN(CCC(C)(C(=O)N(C)Cc2ccc(C(F)(F)F)c(F)c2)c2ccc(Cl)c(Cl)c2)CCN1S(C)(=O)=O` (stereo partly drawn) [Example 70, 2-(3,4-Dichloro-phenyl)-N-(3-fluoro-4-trifluoromethyl-benzyl)-4-((S)-4-methanesulfonyl-3-methyl-piperazin-1-yl)-2,N-dimethyl-butyramide] reads 19.2 nM; that for `C[C@@H]1CN(CCC(C)(C(=O)NCc2ccc3nccnc3c2)c2ccc(Cl)c(Cl)c2)CCN1S(C)(=O)=O` (stereo partly drawn) [Example 38, 2-(3,4-Dichloro-phenyl)-4-((R)-4-methanesulfonyl-3-methyl-piperazin-1-yl)-2-methyl-N-quinoxalin-6-ylmethyl-butyramide], 545 nM; that for `C[C@H]1CN(CCC(C)(C(=O)NCc2ccc(N(C)C)cc2)c2ccc(Cl)c(Cl)c2)CCN1S(C)(=O)=O` (stereo partly drawn) [Example 68, 2-(3,4-Dichloro-phenyl)-N-(4-dimethylamino-benzyl)-4-((S)-4-methanesulfonyl-3-methyl-piperazin-1-yl)-2-methyl-butyramide], 734 nM. `CC(CCN1CCN(S(C)(=O)=O)CC1)(C(=O)NCc1ccc(C#N)cc1)c1ccc(Cl)c(Cl)c1` (stereo not drawn) [Example 18, N-(4-Cyano-benzyl)-2-(3,4-dichloro-phenyl)-4-(4-methanesulfonyl-piperazin-1-yl)-2-methyl-butyramide]: the Ki is 434 nM.
